In patent publication US20100016376A1, “CASPASE INHIBITORS BASED ON PYRIDONE SCAFFOLD” (LG Life Sciences Ltd., priority 2006, published 2010):

Key:
caspase-8 = target: T1, caspase-8 (Homo sapiens, UniProt Q14790); assay: Assay for the caspase inhibitory effect (fluorescent substrate AcDEVD-AFC); format: biochemical; conditions: pH 7.5; 2.1 nM caspase-8, 50 μM AcDEVD-AFC, 25° C., pH 7.50; read-out: Caspase-8 Kobs/[I] (converted)
T1 construct: p10 and p20 subunits (Thornberry, N. A. et al, Nature, 1992, 356, 768) were expressed in E. coli; made in house; host or cells: E. coli
Protocol: Caspase-1 and caspase-8 known as cysteine proteases in the form of α2β2 were expressed, purified, and activated by modifying a method known in Thornberry, N. A. et al, Nature, 1992, 356, 768; Thornberry, N. A. Methods in Enzymology, 1994, 244, 615; Walker, N. P. C. et al. Cell, 1994, 78, 343, and caspase-9 was also purified by a similar method, and the inhibitory activity against them was tested. Briefly describing, p10 and p20 subunits (Thornberry, N. A. et al, Nature, 1992, 356, 768) were expressed in E. coli and purified by nickel column and anionic exchange chromatography to give caspase-1, caspase-8 and caspase-9. The fluorescent substrates AcYVAD-AFC for thus obtained caspase-1, AcDEVD-AFC for caspase-8, and AcLEHD-AFC for caspase-9, were used for determining specific activity of the synthesized inhibitors. The enzyme reaction was carried cut at 25° C. with various concentrations of the inhibitors in a buffer solution containing 50 mM HEPES(pH 7.50), 10% (w/v) sucrose, 0.1% (w/v) CHAPS, 100 mM NaCl, 1 mM EDTA, and 10 mM DTT in the presence of 50 μM AcYVAD-AFC for 10 nM caspase-1, 50 μM AcDEVD-AFC for 2.1 nM caspase-8, and 150 μM AcLEHD-AFC for 200 nM caspase-9. The inhibitory constants Ki and Kobs of the inhibitors were determined by measuring the reaction velocity with the time lapse using a fluorescent spectrometer and by obtaining the initial rate constant. Ki was calculated from the Lineweaver Burk Plot, and Kobs from the following Equation 1.
Kobs=−ln (1−At/Aoo)/t [Equation 1]
At means cleavage rate (%) at time t, and
Aoo means the maximum cleavage rate (%).
Spectra MAX GeminiXS Fluorescent Spectrometer of Molecular Device Co. W is used at the excitation wavelength of 405 nm and the emission wavelength of 505 nm.

[1] = test system: Jurkat cell (ATCC TIB-152); assay: Jurkat cell apoptosis induced by Fas antibody, WST-1 method; format: cell-based; conditions: Homo sapiens, amount of alive Jurkat cells by WST-1
Protocol: The […] inhibitory activity of the inhibitors was determined by subjecting Jurkat cell (ATCC TIB-152) to apoptosis using Fas antibody (Upstate Biotech 05-201) and by detecting the color change according to the WST-1 method known in Francoeur A. M. and Assalian A. (1996) Biochemica 3, 19-25 to observe the amount of alive Jurkat cells when the cells were treated by the inhibitor. Spectra MAX 340 Spectrometer of Molecular Device Co. was used at the absorbance wavelength of 440 nm.

T1 sequence (Q14790 217-374 limits assumed, species assumed): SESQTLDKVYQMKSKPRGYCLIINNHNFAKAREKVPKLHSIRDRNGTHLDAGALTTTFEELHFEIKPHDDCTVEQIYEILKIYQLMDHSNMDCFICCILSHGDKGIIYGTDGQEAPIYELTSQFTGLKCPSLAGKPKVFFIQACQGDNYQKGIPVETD
T1 sequence (Q14790 385-479 limits assumed, species assumed): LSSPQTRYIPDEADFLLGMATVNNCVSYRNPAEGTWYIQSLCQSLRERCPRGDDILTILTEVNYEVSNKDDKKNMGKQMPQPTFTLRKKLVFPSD

kinact/KI (caspase-8) [M⁻¹ s⁻¹]	IC50 [1] [nM]	Compound
750	–	CCC(C(=O)NC(CC(=O)O)C(=O)CF)c1c(C)ccn(CCc2ccccc2)c1=O (stereo not drawn) [Example 3, 5-Fluoro-3-[2-(4-methyl-2-oxo-1-phenethyl-1,2-dihydro-pyridin-3-yl)-butyrylamino]-4-oxo-pentanoic acid]
733	390	CCC(C(=O)NC(CC(=O)O)C(=O)CF)c1c(C)ccn(CC(C)C)c1=O (stereo not drawn) [Example 4, 5-Fluoro-3-[2-(1-isobutyl-4-methyl-2-oxo-1,2-dihydro-pyridin-3-yl)-butyrylamino]-4-oxo-pentanoic acid]
3500	2160	CC(C)C(C(=O)NC(CC(=O)O)C(=O)CF)c1cccn(Cc2ccccc2)c1=O (stereo not drawn) [Example 6, 3-[2-(1-Benzyl-2-oxo-1,2-dihydro-pyridin-3-yl)-3-methyl-butyrylamino]-5-fluoro-4-oxo-pentanoic acid]
33300	180	CCC(C(=O)NC(CC(=O)O)C(=O)CF)c1cccn(Cc2ccccc2C(C)(C)C)c1=O (stereo not drawn) [Example 8, 3-{2-[1-(2-tert-Butyl-benzyl)-2-oxo-1,2-dihydro-pyridin-3-yl]-butyrylamino}-5-fluoro-4-oxo-pentanoic acid]
6670	640	CCCC(C(=O)NC(CC(=O)O)C(=O)CF)c1cccn(Cc2ccccc2)c1=O (stereo not drawn) [Example 7, 3-[2-(1-Benzyl-2-oxo-1,2-dihydro-pyridin-3-yl)-pentanoylamino]-5-fluoro-4-oxo-pentanoic acid]
16700	810	CCC(C(=O)NC(CC(=O)O)C(=O)CF)c1cccn(Cc2ccccc2)c1=O (stereo not drawn) [Example 5, 3-[2-(1-Benzyl-2-oxo-1,2-dihydro-pyridin-3-yl)-butyrylamino]-5-fluoro-4-oxo-pentanoic acid]
1830	2430	CCC(C(=O)NC(CC(=O)O)C(=O)CF)c1c(C)ccn(Cc2ccccc2)c1=O (stereo not drawn) [Example 2, 3-[2-(1-Benzyl-4-methyl-2-oxo-1,2-dihydro-pyridin-3-yl)-butyrylamino]-5-fluoro-4-oxo-pentanoic acid]
467	4900	CCC(C(=O)NC(CC(=O)O)C(=O)CF)c1c(C)ccn(-c2ccccc2)c1=O (stereo not drawn) [Example 1, 5-Fluoro-3-[2-(4-methyl-2-oxo-1-phenyl-1,2-dihydro-pyridin-3-yl)-butyrylamino]-4-oxo-pentanoic acid]
